Molecules are shown by their SMILES. pEC50, pIC50: −log10 of the molar value. In brackets after ≈: the same amount, converted by molar mass. Where two headings read alike, the source gives them in different places.

A short description of data set [1]: MTT cell viability in Jurkat replication assay. To be noted: human, Jurkat (E6-1) cells, pH 7.4; Jurkat infectivity assay; read-out: TC50 (MTT cell viability). The data set is classed as cell-based. The procedure:
(§1) Virus spreading assay. Jurkat (E6-1) cells (NIH AIDS Reagent Program) were cultured in RPMI media supplemented with 25 mM HEPES pH 7.4, 10% heat-inactivated fetal calf serum (Hyclone, Waltham Mass.), and 1% penicillin/streptomycin. 2.5×10^5 Jurkat cells were inoculated with 250 pg p24 in 250 μl media in a 96-well flat bottom polystyrene cell culture microplate. Input virus was removed after 18 hours via washing cells phosphate-buffered saline (PBS). Cells were resuspended in 250 μl of media containing compounds at the described concentrations. Cells were incubated at 37° C., 5% CO2 and supernatant samples were removed every 48 hours and replaced with fresh media containing the compounds. Viral replication was quantified using ELISA to quantify p24 viral capsid protein in the culture supernatant. Mouse monoclonal and rabbit polyclonal α-p24 antibodies used in the ELISA were obtained from the NIH AIDS Reagent Program. Toxicity was monitored using the MTT cell viability assay (Mosmann, T. (1983). J Immunol Methods 65, 55-63).

Another data set in a line: Caco-2 permeability. The format is in vitro ADME. To be noted: human. From the text:
(§2) We next evaluated analogs 2b, 2f, 4a, and 4e in a panel of standard in vitro ADME assays to assess drug-like properties and the potential for efficacy in animals.
Background: Passage across Caco-2 layers is used to estimate intestinal permeability.

Data set [2] is described as follows: Aqueous solubility pH 7.4. The format is physicochemical. As to conditions: aqueous solution, pH 7.4, pH 7.4, aqueous buffer.
Text: as §2

A further data set has as its target T1, Rev-RRE IIB interaction (Human immunodeficiency virus type 1 group M subtype B, UniProt P04608+P04618).
T1 construct: with a fusion to HIV Rev (residues 3-70) was generated; expressed in transfected cells
The format is cell-based, HIV. The procedure: A library of approximately 4500 carboxamide-containing compounds was assembled and tested in the reporter cell line at 30 μM. Reporter cells were plated in a white 96-well plate and compounds were added to the cells using a Biomek FX robotic liquid handler (Beckman Coulter). The cells were incubated with the compound for 48 hours then assayed for luciferase activity (Promega Bright Glo). The cytotoxicity of each compound was determined in parallel via MTT-based cell viability assays.
Cells were counted and plated into white 384-well or 96-well cell-culture treated assay plates and compounds were added. After 48 hours, the cells were prepared for luminescence assays that were performed on a plate reader (Tecan Evolution or MD Analyst). The cytotoxicity of each compound was determined in parallel via MTT-based cell viability assays.
Tat hybrid reporter assay. […] Previously characterized thienopyridines and diaminoacridine were used as controls. Cells were counted and plated into white 384-well cell-culture treated assay plates and compounds were added. After 48 hours, the cells were prepared for lumincescence assays that were performed on a plate reader (Tecan Evolution or MD Analyst). The cytotoxicity of each compound was determined in parallel via MTT-based cell viability assays.
The RRE IIB-Rev screening cell line was plated in 384-well assay plates and compounds were added to the cells to a final concentration of 30 μM. Cells were prepared and assayed for luciferase activity. […] In parallel, MTT cell viability assays were performed to assess the toxicity of compounds and minimize the level of false positives.

Data set [3] in a line: Human liver microsome stability. To be noted: human liver microsomes; read-out: HLM T1/2. The format is in vitro ADME. From the text:
The more lipophilic analogs 4a and 4e also appear more prone to oxidative metabolism in the presence of human liver microsomes. This is perhaps unsurprising given the presence of methoxyphenyl (4a) and benzylic methylene (4e) functions, both potential sites of oxidative metabolism.

Data set [4] deals with HIV RRE (Rev-dependent) reporter. The data set is described as follows: Rev reporter assay in 293T cells, p24 ELISA. To be noted: Human immunodeficiency virus 1, HEK-293T, Table 2. The format is cell-based. The procedure: Rev reporter assay. In the Rev reporter assay, 293T cells were transfected with an HIV RRE (Rev-dependent) reporter plus a pSV2 Rev expression plasmid (Hope, T. J., et al. (1990) Proc. Natl. Acad. Sci. USA 87, 7787-7791). Compounds were incubated with the cells for 48 hours and reporter activity was assessed by p24 ELISA. Leptomycin B, an inhibitor of the Crm1 pathway that inhibits Rev-dependent export, was included as a control. The cytotoxicity of each compound was determined in parallel via MTT-based cell viability assays.
In general terms: A reporter such as luciferase makes a cellular process visible.

Data set [5] relates to A7854G mutant (RRE) virus. The data set is described as follows: Replication of RRE A7854G resistant virus. The data set is classed as cell-based, HIV.
A further data set has as its system HIV-1 isolate NL4-3. The data set is described as follows: Virus spreading / replication assay in Jurkat cells, p24 ELISA. The format is cell-based. The protocol:
as §1
(In general: An ELISA detects its analyte on a solid surface through an enzyme-linked reagent.)

The test system of data set [6] is HIV-1 isolate NL4-3 deleted for Vpu. Nature of the data set: Replication assay in Jurkat cells with Vpu-deleted virus. The format is cell-based. To be noted: Human immunodeficiency virus 1, NL43, Jurkat, read-out: IC50 value for isolate NL4-3 deleted for Vpu. The protocol:
FIG. 10. In embodiments, HIV viruses that are defective or deleted for Vpu are resistant to the compounds described herein. Replication assays with HIV-1 isolate NL4-3 or NL4-3 deleted for Vpu in Jurkat cells. Replication spreading assays were performed with compound at doses ranging from 1 nM to 316 nM in triplicate. Supernatants were collected every 48-72 hours and p24 values were determined by ELISA. FIG. 10 corresponds to analog 4e with HIV-1 isolate NL4-3 in Jurkat cells and with HIV-1 isolate NL4-3 deleted for Vpu in Jurkat cells.
as §1, with “Cells were incubated at 37° C., 5% CO2 and supernatant samples were removed every 48 hours and replaced with fresh media containing the compounds.” left out, “Mouse monoclonal and rabbit polyclonal α-p24 antibodies used in the ELISA were obtained from the NIH AIDS Reagent Program.” left out, “55-63). […]” for “55-63).”

Data set [7] has as its system HIV-1 provirus in U1 cells. Nature of the data set: U1 activation (latency) assay, p24 ELISA. The data set is classed as cell-based. As to conditions: for pIC50: Human immunodeficiency virus 1. In a few lines: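 PHA-activated U1 cells (latent integrated HIV-1 provirus, 250,000/well) treated with compound at final 1 to 10,000 nM for 3 days; virus production measured by p24 ELISA of cell-free supernatant. Cell viability assessed by MTT in parallel cultures.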

T1 sequence (P04608 whole entry, looked up, the tested form may be a part): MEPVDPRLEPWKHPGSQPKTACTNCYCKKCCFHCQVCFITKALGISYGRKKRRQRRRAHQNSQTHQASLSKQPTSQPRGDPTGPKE
T1 sequence (P04618 whole entry, looked up, the tested form may be a part): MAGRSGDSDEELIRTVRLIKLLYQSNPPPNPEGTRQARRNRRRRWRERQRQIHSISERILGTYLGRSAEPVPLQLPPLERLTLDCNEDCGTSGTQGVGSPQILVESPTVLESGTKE

As for `NC(=O)c1cc2c(-c3ccc4c(c3)CCO4)cncc2s1` [Compound 4e, 4-(2,3-dihydro-1-benzofuran-5-yl)thieno[2,3-c]pyridine-2-carboxamide], the CC50 in data set [1] was less than 40000 nM. In addition, the apparent permeability (Papp) – broadly, the rate of passage across a membrane or cell layer, normalised by area and donor concentration – in the data set “Caco-2 permeability” was 66.6 ×10⁻⁶ cm/s. In addition, the solubility (commonly the dissolved amount per volume that the medium holds) in data set [2] worked out at 0.28 µM (≈ 0.083 µg/mL). The “activity in the Tat-hybrid reporter assay” value on Rev-RRE IIB interaction was “low-nM potency”. Moreover, the half-life in [3] is 18 min. Further, in data set [4], the negative logarithm of the EC50 (pEC50) (commonly −log10 of the EC50, conventionally taken in molar units) was 6.30 to 7.00. Besides, the pIC50 in [5] (Human immunodeficiency virus 1, read-out: IC50 A7854G mutant) is 6.66; in data set [5] (Human immunodeficiency virus 1, read-out: IC50 resistant-virus), 8.29; with HIV-1 isolate NL4-3 (Human immunodeficiency virus 1, NL43, Jurkat, FIG. 17, first pair of values, read-out: IC50 NL4-3 control) it was 8.21; with HIV-1 isolate NL4-3 (Human immunodeficiency virus 1, NL43, Jurkat, FIG. 17, second pair of values ('Notably'), read-out: IC50 control), 7.59; in the data set with HIV-1 isolate NL4-3 (Human immunodeficiency virus 1, NL43, Jurkat, Table 2, NL4-3, read-out: Jurkat HIV-1 replication assay), greater than 7.00; in the data set on HIV-1 isolate NL4-3 (Human immunodeficiency virus 1, NL43, Jurkat, read-out: IC50 in the HIV replication assay), 8.40. Moreover, the pIC50 with HIV-1 isolate NL4-3 (Human immunodeficiency virus 1, NL43, Jurkat cells, wild type virus, Vpu experiment (FIG. 10), read-out: IC50 value for isolate NL4-3) is 8.30; in data set [6], 6.82; in data set [7] (Table 2, read-out: U1 cell IC50) it was greater than 7.00; in data set [7] (read-out: IC50 in the U1 assay), 8.05. For the same compound, in data set [7], the “potency in the U1 assay” value is recorded as “low-nM potency”.

These data come from patent publication US10154992B2, “Compounds and methods for treating HIV infection” (THE REGENTS OF THE UNIVERSITY OF CALIFORNIA, priority 2016, dated 2018).
